Values quoted from earlier work as cited in patent publication US20260131010A1, “MENIN PROTEOLYSIS TARGETING CHIMERAS (PROTACS)” (Board of Regents, The University of Texas System, priority 2022, published 2026).

Test system: MLL leukemias
Settings: Borkin, et al. Cancer Cell 2015, 27(4) 589-602

In the case of `Cc1c(CN2CCC(Nc3ncnc4sc(CC(F)(F)F)cc34)CC2)ccc2c1cc(C#N)n2Cc1cn[nH]c1` [MI-503], the “efficacy in mouse models of MLL leukemias” value is listed as “effective”.
